Where “and” joins values, the source holds several entries; their conditions need not be identical. Identical values can stand only once. Records with an inconclusive call do not appear.

Experimental findings from PubChem BioAssay AID220 (DTP/NCI, 2004) are described below.

For this experiment, the system named is CD8F1 mice, subcutaneous mammary adenocarcinoma, T/C%. Briefly: NCI In Vivo Anticancer Drug Screen. Data for tumor model Mammary Adenocarcinoma CD8F1 (subcutaneous) in CD8F1. To be noted: higher = larger tumour. In short, it runs like this: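 Mice carrying transplanted tumors received test compound, and survival or tumor size was recorded. Each value is the treated-group measurement divided by the corresponding measurement in vehicle-dosed controls.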

Setting [1] is: endpoint: median tumor weight (est.), dose: 12.5 mg/kg/injection, schedule: Q07DX005 (ip), vehicle: saline with Tween-80.
The mark [2] stands for this setting: endpoint: median tumor weight change, dose: 125.0 mg/kg/injection, schedule: Q01DX001 (ip), vehicle: saline with Tween-80.
The mark [3] stands for this setting: endpoint: median tumor weight (est.), dose: 12.5 mg/kg/injection, schedule: Q07DX005 (ip), vehicle: Klucel (hydroxypropylcellulose) (HPC).
The mark [4] stands for this setting: endpoint: median tumor weight (est.), dose: 200.0 mg/kg/injection, schedule: Q07DX005 (ip), vehicle: Klucel (hydroxypropylcellulose) (HPC).
Setting [5] is: endpoint: median tumor weight (est.), dose: 400.0 mg/kg/injection, schedule: Q07DX005 (ip), vehicle: Klucel (hydroxypropylcellulose) (HPC).

For `CC[C@@]1(O)C(=O)OCc2c1cc1n(c2=O)Cc2cc3cc(O)ccc3nc2-1`, the T/C was 97 % of control (endpoint: median tumor weight change, dose: 1.85 mg/kg/injection, schedule: Q01DX001 (ip), vehicle: saline); 107 % of control (endpoint: median tumor weight change, dose: 7.5 mg/kg/injection, schedule: Q01DX001 (ip), vehicle: saline); 80 % of control (endpoint: median tumor weight change, dose: 15.0 mg/kg/injection, schedule: Q01DX001 (ip), vehicle: saline); 28 % of control (endpoint: median tumor weight change, dose: 30.0 mg/kg/injection, schedule: Q01DX001 (ip), vehicle: saline).

`COC1=C(OC)C(=O)C(C/C=C(\C)CC/C=C(\C)CC/C=C(\C)CC/C=C(\C)CC/C=C(\C)CC/C=C(\C)CC/C=C(\C)CC/C=C(\C)CC/C=C(\C)CCC=C(C)C)=C(C)C1=O`: the T/C by setting is: under setting [1], 59 % of control; (endpoint: median tumor weight (est.), dose: 25.0 mg/kg/injection, schedule: Q07DX005 (ip), vehicle: saline with Tween-80) 67 % of control; (endpoint: median tumor weight (est.), dose: 50.0 mg/kg/injection, schedule: Q07DX005 (ip), vehicle: saline with Tween-80) 47 % of control; (endpoint: median tumor weight (est.), dose: 100.0 mg/kg/injection, schedule: Q07DX005 (ip), vehicle: saline with Tween-80) 93 % of control; (endpoint: median tumor weight (est.), dose: 200.0 mg/kg/injection, schedule: Q07DX005 (ip), vehicle: saline with Tween-80) 122 % of control; (endpoint: median tumor weight (est.), dose: 400.0 mg/kg/injection, schedule: Q07DX005 (ip), vehicle: saline with Tween-80) 76 % of control.

With `O=S(=O)(N=N/C=C1\C=CC=CN1O)c1cccs1`, the T/C is, setting by setting: under setting [2], 76 % of control; (endpoint: median tumor weight change, dose: 250.0 mg/kg/injection, schedule: Q01DX001 (ip), vehicle: saline with Tween-80) 88 % of control.

In the case of `OCC1OC(n2cnc3c(NO)ncnc32)C(O)C1O` (stereo not given), the T/C runs as follows: under setting [3], 104 % of control; (endpoint: median tumor weight (est.), dose: 25.0 mg/kg/injection, schedule: Q07DX005 (ip), vehicle: Klucel (hydroxypropylcellulose) (HPC)) 66 % of control; (endpoint: median tumor weight (est.), dose: 50.0 mg/kg/injection, schedule: Q07DX005 (ip), vehicle: Klucel (hydroxypropylcellulose) (HPC)) 85 % of control; (endpoint: median tumor weight (est.), dose: 100.0 mg/kg/injection, schedule: Q07DX005 (ip), vehicle: Klucel (hydroxypropylcellulose) (HPC)) 91 % of control; under setting [4], 69 % of control; under setting [5], 113 % of control.

Turning to `N#Cc1nc(C#N)c(Sc2ccccc2)c(Sc2ccccc2)c1Sc1ccccc1`, the T/C runs as follows: (endpoint: median tumor weight (est.), dose: 6.25 mg/kg/injection, schedule: Q07DX005 (ip), vehicle: saline with Tween-80) 165 % of control; under setting [1], 113 % of control.

For the compound `Cc1ccccc1-[n+]1noc(N)n1`, the T/C (endpoint: median tumor weight change, dose: 31.25 mg/kg/injection, schedule: Q01DX001 (ip), vehicle: water) was 72 % of control; the T/C (endpoint: median tumor weight change, dose: 62.5 mg/kg/injection, schedule: Q01DX001 (ip), vehicle: water) was 87 % of control; the T/C (endpoint: median tumor weight change, dose: 125.0 mg/kg/injection, schedule: Q01DX001 (ip), vehicle: water) is 29 % of control.

`CCCCC(C)(C(=O)OCC)C(=O)OCC`: the T/C reads like this: under setting [3], 94 % of control; under setting [4], 110 % of control; under setting [5], 212 % of control.

Take `COC(C(=O)C(O)C(C)O)C1CC2C=C3C=C(OC4CC(OC5CC(O)C(OC)C(C)O5)C(OC(C)=O)C(C)O4)C(C)C(=O)C3=C(O)C2=C(O)C1OC1CC(OC2CC(OC3CC(C)(O)C(O)C(C)O3)C(O)C(C)O2)C(O)C(C)O1` (stereo not given): the T/C was 73 % of control (endpoint: mean tumor weight, dose: 1.0 mg/kg/injection, schedule: Q07DX005 (ip), vehicle: saline); 64 % of control (endpoint: mean tumor weight, dose: 2.0 mg/kg/injection, schedule: Q07DX005 (ip), vehicle: saline); 58 % of control (endpoint: median tumor weight (est.), dose: 0.5 mg/kg/injection, schedule: Q07DX005 (ip), vehicle: saline with Tween-80); 78 % of control (endpoint: median tumor weight (est.), dose: 1.0 mg/kg/injection, schedule: Q07DX005 (ip), vehicle: saline with Tween-80); 89 % of control (endpoint: median tumor weight (est.), dose: 2.0 mg/kg/injection, schedule: Q07DX005 (ip), vehicle: saline with Tween-80).

With `CCN(CC)CCNc1ccc(C)c2sc3ccc(O)cc3c(=O)c12`, the T/C runs as follows: (endpoint: median tumor weight change, dose: 62.5 mg/kg/injection, schedule: Q01DX001 (ip), vehicle: saline with Tween-80) 59 % of control; under setting [2], 169 % of control; (endpoint: median tumor weight change, dose: 684.0 mg/kg/injection, schedule: Q01DX001 (ip), vehicle: saline with Tween-80) 37 % of control.

For the compound `CN1CCN(CN2C(=O)C3C4C=CC(C3C2=O)C2C3C(=O)N(CN5CCN(C)CC5)C(=O)C3C42)CC1` (stereo not given), the T/C was 98 % of control (endpoint: median tumor weight change, dose: 21.6 mg/kg/injection, schedule: Q01DX005 (ip), vehicle: water); 84 % of control (endpoint: median tumor weight change, dose: 24.8 mg/kg/injection, schedule: Q01DX005 (ip), vehicle: water); 70 % of control (endpoint: median tumor weight change, dose: 36.0 mg/kg/injection, schedule: Q01DX005 (ip), vehicle: water); 25 % of control (endpoint: median tumor weight change, dose: 41.4 mg/kg/injection, schedule: Q01DX005 (ip), vehicle: water); 54 % of control (endpoint: median tumor weight change, dose: 60.0 mg/kg/injection, schedule: Q01DX005 (ip), vehicle: water); 23 % of control (endpoint: median tumor weight change, dose: 69.0 mg/kg/injection, schedule: Q01DX005 (ip), vehicle: water). Also, the T/C (endpoint: median tumor weight change, dose: 100.0 mg/kg/injection, schedule: Q01DX005 (ip), vehicle: water) was 21 % of control; the T/C (endpoint: median tumor weight change, dose: 108.0 mg/kg/injection, schedule: Q01DX001 (ip), vehicle: water) is 33 % of control; the T/C (endpoint: median tumor weight change, dose: 123.9 mg/kg/injection, schedule: Q01DX001 (ip), vehicle: water) is 33 % of control.

Take `COC1=C2C[C@@H](C)C[C@@H](OC)[C@@H](O)[C@H](C)/C=C(\C)[C@@H](OC(N)=O)[C@H](OC)/C=C\C=C(/C)C(=O)NC(=CC1=O)C2=O`: the T/C by setting is: (endpoint: median tumor weight change, dose: 1.25 mg/kg/injection, schedule: Q01DX001 (ip), vehicle: saline with Tween-80) 93 % of control and 98 % of control; (endpoint: median tumor weight change, dose: 2.5 mg/kg/injection, schedule: Q01DX001 (ip), vehicle: saline with Tween-80) 117 % of control and 121 % of control; (endpoint: median tumor weight change, dose: 5.0 mg/kg/injection, schedule: Q01DX001 (ip), vehicle: saline with Tween-80) 46 % of control.

With `C=C1C(C)C2C(Cc3ccccc3)NC(=O)C23C(OC(C)=O)C=CC(C)(O)C(=O)C(C)C/C=C/C3C1O` (stereo not given), the T/C is 64 % of control (endpoint: median tumor weight (est.), dose: 0.62 mg/kg/injection, schedule: Q07DX005 (ip), vehicle: saline); 61 % of control (endpoint: median tumor weight (est.), dose: 1.25 mg/kg/injection, schedule: Q07DX005 (ip), vehicle: saline); 94 % of control (endpoint: median tumor weight (est.), dose: 2.5 mg/kg/injection, schedule: Q07DX005 (ip), vehicle: saline); 59 % of control (endpoint: median tumor weight (est.), dose: 5.0 mg/kg/injection, schedule: Q07DX005 (ip), vehicle: saline); 46 % of control (endpoint: median tumor weight (est.), dose: 10.0 mg/kg/injection, schedule: Q07DX005 (ip), vehicle: saline).

On to `O=NN(CCCl)C(=O)Oc1ccc(OC(=O)N(CCCl)N=O)cc1`, for which the T/C is 107 % of control (endpoint: median tumor weight change, dose: 25.0 mg/kg/injection, schedule: Q01DX001 (ip), vehicle: Klucel (hydroxypropylcellulose) (HPC)) and 75 % of control (endpoint: median tumor weight change, dose: 50.0 mg/kg/injection, schedule: Q01DX001 (ip), vehicle: Klucel (hydroxypropylcellulose) (HPC)).

Regarding `Cc1nc(N)nc(N)c1-c1ccc(Cl)c(Cl)c1`, the T/C (endpoint: mean tumor weight (est.), dose: 10.0 mg/kg/injection, schedule: Q07DX003 (ip), vehicle: saline with Tween-80) was 120 % of control; the T/C (endpoint: median tumor weight change, dose: 12.5 mg/kg/injection, schedule: Q01DX001 (ip), vehicle: saline with Tween-80) is 20 % of control; the T/C (endpoint: median tumor weight change, dose: 12.5 mg/kg/injection, schedule: Q01DX001 (ip), vehicle: suspension in saline) is 79 % of control; the T/C (endpoint: median tumor weight change, dose: 25.0 mg/kg/injection, schedule: Q01DX001 (ip), vehicle: saline with Tween-80) is 50 % of control; the T/C (endpoint: median tumor weight change, dose: 25.0 mg/kg/injection, schedule: Q01DX001 (ip), vehicle: suspension in saline) was 38 % of control; the T/C (endpoint: median tumor weight change, dose: 50.0 mg/kg/injection, schedule: Q01DX001 (ip), vehicle: saline with Tween-80) was 8 % of control. The T/C (endpoint: median tumor weight change, dose: 50.0 mg/kg/injection, schedule: Q01DX001 (ip), vehicle: suspension in saline) was 12 % of control.
